The values below come from patent US11793885B2, “Substituted benzo[5,6][1,4]diazepino[1,2-a]indoles for the treatment of proliferative disorders” (priority 2017, dated 2023).

Each structure is given as a SMILES string.

One series deals with KB (cervical carcinoma). The series is described as follows: in vitro cytotoxicity assay, KB cells. Conditions: Homo sapiens, KB, 120 h; free cytotoxic compound; 5 days. The class given is cell-based, human.
The test system of series [1] is T47D (breast epithelial cancer). The series is described as follows: in vitro cytotoxicity assay, T47D cells. Conditions: Homo sapiens, 96 h, read-out: IC50 T47D. The format is cell-based.
Description: The cells were maintained and plated for the cytotox experiments in media recommended by the manufacturers. Cells were plated in the 96-well flat bottom plates at a seeding density of 800 cells per well (Ishikawa, JEG-3 or SK-OV-6), 1,000 cells per well (KB, Namalwa, EOL-1, OV-90 and Igrov-1) or 2,000 cell per well (NCI H2110, JHOS-4 and T47D). Conjugates or free drug compounds were diluted in RPMI-1640 (Life Technologies) supplemented with heat-inactivated 100 FBS (Life Technologies) and 0.1 mg/ml gentamycin (Life Technologies), and added to the plated cells. To determine specificity of cytotoxic activity of the conjugates an excess of unconjugated antibody was added to a separate set of diluted conjugates (+block samples, IC50 table). The plates were incubated at 37° C., 500 CO2 for either 4 days (JHOS-4 and T47D cells) or 5 days (KB, NCI H2110, Ishikawa, EOL-1, JEG-3, OV-90, SK-OV-6, NC-H441 and Igrov-1 cells). Alamar blue assay (Invitrogen) was used to determine viability of JHOS-4 and T47D cells, and WST-8 assay (Donjindo Molecular Technologies, Inc.) was applied for viability of KB, NCI H2110, Namalwa, Ishikawa, EOL-1, JEG-4, OV-90, SK-OV-6, NCI-H4441 and Igrov-1 cells. The assays were performed in accordance with the manufacturer's protocols. Killing curves and IC50 were generated using a sigmoidal dose-response nonlinear regression curve fit (GraphPad Software Inc.).
The subject of series [2] is NCI-H2110 (Non Small Cell Lung Carcinoma). The series is described as follows: in vitro cytotoxicity assay, NCI-H2110 cells. The class given is cell-based. Conditions: NCI-H2110, 120 h, free cytotoxic compound; 5 days.
Excerpt: (§1) Following cell lines were used for the study: KB (cervical carcinoma, ATCC), NCI-H2110 (Non Small Cell Lung Carcinoma, ATCC), Namalwa (Burkitt's lymphoma, ATCC), Ishikawa (endometrial adenocarcinoma, ECACC), EOL-1 (Acute Myeloid Leukemia, ECACC), JEG-3 (choriocarcinoma, ATCC), JHOS-4 (ovarian adenocarcinoma, Riken Bioresource Center), OV-90 (ovarian adenocarcinoma, ATCC), SKOV-6 (ovarian adenocarcinoma, Memorial Sloan Kettering Cancer Center), Igrov-1 (ovarian adenocarcinoma, National Cancer Institute), KB-GRC1-MDR (cervical carcinoma/Pgp positive, gift from Dr. Roninson at the Ordway Research Institute) and T47D (breast epithelial cancer, ATCC). The cells were maintained and plated for the cytotox experiments in media recommended by the manufacturers. Cells were plated in the 96-well flat bottom plates at a seeding density of 800 cells per well (Ishikawa, JEG-3 or SK-OV-6), 1,000 cells per well (KB, Namalwa, EOL-1, OV-90 and Igrov-1) or 2,000 cell per well (NCI H2110, JHOS-4 and T47D). Conjugates or free drug compounds were diluted in RPMI-1640 (Life Technologies) supplemented with heat-inactivated 100 FBS (Life Technologies) and 0.1 mg/ml gentamycin (Life Technologies), and added to the plated cells. To determine specificity of cytotoxic activity of the conjugates an excess of unconjugated antibody was added to a separate set of diluted conjugates (+block samples, IC50 table). The plates were incubated at 37° C., 500 CO2 for either 4 days (JHOS-4 and T47D cells) or 5 days (KB, NCI H2110, Ishikawa, EOL-1, JEG-3, OV-90, SK-OV-6, NC-H441 and Igrov-1 cells). Alamar blue assay (Invitrogen) was used to determine viability of JHOS-4 and T47D cells, and WST-8 assay (Donjindo Molecular Technologies, Inc.) was applied for viability of KB, NCI H2110, Namalwa, Ishikawa, EOL-1, JEG-4, OV-90, SK-OV-6, NCI-H4441 and Igrov-1 cells. The assays were performed in accordance with the manufacturer's protocols. Killing curves and IC50 were generated using a sigmoidal dose-response nonlinear regression curve fit (GraphPad Software Inc.).
For series [3] the following is noted: Phase I clinical evaluation; cited from earlier work.

Excerpt for KB (cervical carcinoma): as §1

For `COC(=O)c1cc2cc(NC(=O)c3cc(NCCCCOc4cc5c(cc4OC)C(=O)N4c6ccccc6C[C@H]4C=N5)cn3C)ccc2s1` [Compound 216], the IC50 with KB (cervical carcinoma) is 0.5 nM; in series [1], 2 nM; in series [2], 9 nM.
Regarding `C=C1C[C@H]2C=Nc3cc(OCCCOc4cc5c(cc4OC)C(=O)N4CC(=C)C[C@H]4C=N5)c(OC)cc3C(=O)N2C1` [SJG-136], in series [3], the maximum tolerated dose is recorded as 45 μg/m^2.

The IC50 is the concentration at which inhibition is half-maximal.
